# Test results as given in publication PMC9569450, “Dual Effect of Tryptamine on Prostate Cancer Cell Growth Regulation: A Pilot Study” (International Journal of Molecular Sciences, 2022).
# Like-named read-outs stand apart in the source and are kept apart here.
# Assays:
# [1] = test system: LNCaP cells; assay: MTT cell proliferation assay, LNCaP; assay type: cell-based; settings: 48 h treatment in FBS-free medium, read-out: IC50 Value (Mean ± SD mM) LNCaP
# Description: (§1) PC-3, LNCaP, RWPE-1, HepG2, A549, and PANC-1 cells were purchased from the National Collection of Authenticated Cell Cultures (Shanghai, China). […] All the above cell cultures were supplied with 10% fetal bovine serum and 1% penicillin-streptomycin. RWPE-1 cells were cultured in keratinocyte serum-free medium (K-SFM, Gibco, New York, NY, USA) supplemented with 50 mg/L bovine pituitary extract and 5 μg/L epidermal growth factor (EGF). All cell lines were grown in a humidified atmosphere of 5% CO2 at 37 °C.
# (§2) Cells were seeded in 100 μL complete medium in a 96-well plate, at a density of 10,000 cells/well for LNCaP and 5000 cells/well for other cells. Cells were pre-incubated for 24 h to allow for adherence before removal of complete medium and treatment with various concentrations of compounds in fetal bovine serum (FBS)-free medium for 48 h. After treatment, 20 μL/well MTT (5 mg/mL) was added and incubated for 3–4 h at 37 °C, and then 100 μL/well DMSO was added for MTT assay. The plate was shaken on an orbital shaker for 10 min. Absorbance was measured using a microplate reader at 492 nm for the MTT assay (performed in triplicates). Cell viability was normalized to control. Half inhibitory concentration (IC50) was calculated by SPSS Statistics 17.0. […] The experiments were independently repeated two to three times.
# [2] = test system: PC-3 cells; assay: MTT cell proliferation assay, PC-3; assay type: cell-based, human; settings: read-out: IC50 Value (Mean ± SD mM) PC-3
# Description: as §1, §2
# [3] = test system: A549 cells; assay: MTT cell proliferation assay, A549; assay type: cell-based; settings: read-out: IC50 Value (Mean ± SD mM) A549
# Description: as §1, §2
# [4] = test system: PC-3 xenograft tumors; assay: PC-3 xenograft mouse model; assay type: in vivo; settings: 200 mg/kg
# Description: Five-week-old male BALB/c nude mice were purchased from Charles River Laboratories (Beijing, China) and raised in a temperature and humidity-controlled environment (25 ± 2 °C, 50% ± 10% humidity) with a standard 12 h light-dark cycle with food and water in cages under germ-free conditions (SCXK2021-0006). All procedures involving animals and their care were approved by the Institutional Animal Care and Use Committee of the Ocean University of China in accordance with institutional and National Institutes of Health guidelines (OUC-SMP-2022-01-01). PC-3 cells (4 × 10^6 dissolved in 150 μL PBS) were injected subcutaneously into the armpit area of each mouse. For the first treatment group, when tumors reached 50 mm^3, 80 mg/kg of tryptamine dissolved in normal saline with 0.1% formic acid was administered intraperitoneally once every other day for 32 days (n = 6). […] The control groups were administrated with the vehicle. The tumor volume (mm^3) was calculated based on the formula:(2) Tumor volume (mm^3)=length×width^2/2
# [5] = test system: PANC-1 cells; assay: MTT cell proliferation assay, PANC-1; assay type: cell-based; settings: read-out: IC50 Value (Mean ± SD mM) PANC-1
# Description: as §1, §2
# [6] = test system: PC-3, LNCaP, RWPE-1, A549, PANC-1, and HepG2 cells; assay: MTT cell proliferation assay, all cell lines; assay type: cell-based
# Description: (§3) PC-3, LNCaP, RWPE-1, HepG2, A549, and PANC-1 cells were purchased from the National Collection of Authenticated Cell Cultures (Shanghai, China). PC-3 and A549 cells were cultured in F-12K Nutrient Mixture (Gibco, New York, NY, USA), LNCaP in RPMI 1640 (Gibco, New York, NY, USA), PANC-1 in Dulbecco’s Modified Eagle Medium (DMEM, Gibco, New York, NY, USA), and HepG2 in minimal essential medium (MEM, Gibco, New York, NY, USA). All the above cell cultures were supplied with 10% fetal bovine serum and 1% penicillin-streptomycin. RWPE-1 cells were cultured in keratinocyte serum-free medium (K-SFM, Gibco, New York, NY, USA) supplemented with 50 mg/L bovine pituitary extract and 5 μg/L epidermal growth factor (EGF). All cell lines were grown in a humidified atmosphere of 5% CO2 at 37 °C.
# (§4) Cells were seeded in 100 μL complete medium in a 96-well plate, at a density of 10,000 cells/well for LNCaP and 5000 cells/well for other cells. Cells were pre-incubated for 24 h to allow for adherence before removal of complete medium and treatment with various concentrations of compounds in fetal bovine serum (FBS)-free medium for 48 h. After treatment, 20 μL/well MTT (5 mg/mL) was added and incubated for 3–4 h at 37 °C, and then 100 μL/well DMSO was added for MTT assay. The plate was shaken on an orbital shaker for 10 min. Absorbance was measured using a microplate reader at 492 nm for the MTT assay (performed in triplicates). Cell viability was normalized to control. Half inhibitory concentration (IC50) was calculated by SPSS Statistics 17.0. The combination index (CI) isobologram equation was used for the quantitative determination of the interaction between two compounds [62]:(1) Combination index CI =CA,x/ICx,A+CB,x/ICx,B where CA,x and CB,x are compound concentrations that […], and ICx,A and ICx,B are compound concentrations that provide the same effect when being used in combination. The experiments were independently repeated two to three times.
# [7] = test system: RWPE-1 cells; assay: MTT cell proliferation assay, RWPE-1; assay type: cell-based; settings: for IC50: MTT, 48 h treatment in FBS-free medium, read-out: IC50 Value (Mean ± SD mM) RWPE-1
# Description: as §1, §2
# [8] = test system: HepG2 cells; assay: MTT cell proliferation assay, HepG2; assay type: cell-based; settings: read-out: IC50 Value (Mean ± SD mM) HepG2
# Description: as §1, §2
# [9] = test system: ovarian cancer; design: method as in PMID 27121207; settings: intraperitoneal injections of 10 mg/kg; cited from earlier work
# [10] = test system: PC-3 and LNCaP cells; assay: MTT cell proliferation assay, PCa cell lines; assay type: cell-based; settings: Homo sapiens, read-out: IC50 values on PCa cell lines
# Description: as §3, §4
# [11] = test system: human castration-resistant PCa cells DU145 and PC3; design: method as in PMID 33945018; settings: cited from earlier work
# [12] = test system: A549, HepG2, and PANC-1 cells; assay: MTT cell proliferation assay, other three cancer cell lines; assay type: cell-based; settings: A549, HepG2, and PANC-1, text summary
# Description: as §1, §2
# [13] = Homo sapiens, PC-3, 48 h treatment in FBS-free medium
# [14] = Homo sapiens, A549, 48 h treatment in FBS-free medium
# [15] = Homo sapiens, PANC-1, 48 h treatment in FBS-free medium
# [16] = all cell lines tested, read-out: IC50 values for all six cell lines tested
# [17] = Homo sapiens, HepG2, 48 h treatment in FBS-free medium
# [18] = 48 h treatment in FBS-free medium
# [19] = discussion summary, all cancer cell lines tested, read-out: IC50 values in all cancer cell lines tested
compound,measurement,setting,value
"Nc1c(O)cccc1C(=O)O [3-HAA, 3-hydroxyanthranilic acid]",IC50,"[1]; Homo sapiens, LNCaP",0.65 ± 0.06 mM
same,IC50,[2]; [13],0.9 ± 0.04 mM
same,IC50,[3]; [14],0.27 ± 0.01 mM
same,tumor size,[4]; intraperitoneal administration,No difference in tumor size
same,tumor size,[4]; intratumoral administration,No difference in tumor size
same,IC50,[5]; [15],0.41 ± 0.01 mM
same,IC50,[6]; [16],≤ 0.9 mM
same,IC50,"[7]; Homo sapiens, RWPE-1",0.38 ± 0.01 mM
same,Effect on proliferation of RWPE-1 cells,[7]; concentrations between 0.03 and 0.1 mM,promoted the proliferation
same,IC50,[8]; [17],0.42 ± 0.02 mM
"Nc1c(O)cccc1C(=O)CC(N)C(=O)O (centres unmarked) [3-HK, 3-hydroxykynurenine]",IC50,[1],0.29 ± 0.01 mM
same,IC50,[2]; [18],0.55 ± 0.01 mM
same,IC50,[3]; [18],0.29 ± 0.01 mM
same,IC50,[5]; [18],0.25 ± 0.01 mM
same,IC50,[6]; [16],≤ 0.9 mM
same,IC50,[7],0.36 ± 0.01 mM
same,IC50,[8]; [18],0.25 ± 0.01 mM
"NCCc1c[nH]c2ccc(O)cc12 [5-HT, 5-hydroxytryptamine]",IC50,"[1]; Homo sapiens, LNCaP",1.12 ± 0.04 mM
same,IC50,[2]; [13],1.07 ± 0.03 mM
same,tumor weight increase,[9],~60%
same,IC50,[3]; [14],1.89 ± 0.09 mM
same,IC50,[5]; [15],1.34 ± 0.13 mM
same,IC50,[6]; [16],≥ 1 mM
same,IC50,"[7]; Homo sapiens, RWPE-1",1.66 ± 0.01 mM
same,IC50,[8]; [17],1.05 ± 0.17 mM
"N[C@@H](Cc1c[nH]c2ccc(O)cc12)C(=O)O [5-HTP, 5-hydroxytryptophan]",IC50,"[1]; Homo sapiens, LNCaP",1.8 ± 0.17 mM
same,IC50,[2]; [13],0.99 ± 0.04 mM
same,IC50,"[7]; Homo sapiens, RWPE-1",0.85 ± 0.05 mM
"Nc1c(C(=O)O)c2nc3c(C(=O)O)cccc3oc-2cc1=O [CA, cinnabarinic acid]",IC50,"[1]; Homo sapiens, LNCaP",0.24 ± 0.01 mM
same,IC50,[2]; [13],0.17 ± 0.01 mM
same,IC50,[3]; [14],0.21 ± 0.01 mM
same,IC50,[5]; [15],0.25 ± 0.04 mM
same,IC50,[6]; [16],≤ 0.9 mM
same,IC50,"[7]; Homo sapiens, RWPE-1",0.4 ± 0.01 mM
same,IC50,[8]; [17],0.1 ± 0.01 mM
"COc1cc([C@@H]2c3cc4c(cc3[C@@H](O[C@@H]3O[C@@H]5CO[C@@H](C)O[C@H]5[C@H](O)[C@H]3O)[C@H]3COC(=O)[C@H]23)OCO4)cc(OC)c1O [Etoposide, reference compound]",IC50,"[1]; Homo sapiens, LNCaP",0.032 ± 0.001 mM
same,IC50,[2]; [13],0.064 ± 0.001 mM
same,IC50,[3]; [14],0.041 ± 0.002 mM
same,IC50,[5]; [15],0.042 ± 0.001 mM
same,IC50,"[7]; Homo sapiens, RWPE-1",0.016 ± 0.001 mM
same,IC50,[8]; [17],0.03 ± 0.001 mM
c1ccc2[nH]ccc2c1 [Indole],IC50,"[1]; Homo sapiens, LNCaP",0.98 ± 0.02 mM
same,IC50,[2]; [13],0.7 ± 0.02 mM
same,IC50,"[7]; Homo sapiens, RWPE-1",0.9 ± 0.06 mM
"O=C(O)c1cc(=O)c2ccccc2[nH]1 [KYNA, kynurenic acid]",IC50,"[1]; Homo sapiens, LNCaP",9.74 ± 1.3 mM
same,IC50,[2]; [13],8.76 ± 1.18 mM
same,IC50,[10]; PC-3 and LNCaP,> 5 mM
same,IC50,[6]; [19],> 3 mM
same,IC50,"[7]; Homo sapiens, RWPE-1",4.39 ± 0.1 mM
same,effect on DU145 and PC3 cells,[11],scarce or no effect
"Nc1ccccc1C(=O)CC(N)C(=O)O (centres unmarked) [Kynurenine, kynurenine]",IC50,"[1]; Homo sapiens, LNCaP",1.78 ± 0.18 mM
same,IC50,[2]; [13],2.02 ± 0.05 mM
same,IC50,[3]; [14],2.46 ± 0.05 mM
same,IC50,[5]; [15],2.63 ± 0.04 mM
same,IC50,[6]; [16],≥ 1 mM
same,IC50,"[7]; Homo sapiens, RWPE-1",2.79 ± 0.05 mM
same,IC50,[8]; [17],1.93 ± 0.03 mM
COc1ccc2[nH]cc(CCNC(C)=O)c2c1 [Melatonin],IC50,"[1]; Homo sapiens, LNCaP",1.25 ± 0.12 mM
same,IC50,[2]; [13],1.28 ± 0.06 mM
same,IC50,[3]; [14],2.31 ± 0.06 mM
same,IC50,[5]; [15],2.02 ± 0.09 mM
same,IC50,[6]; [16],≥ 1 mM
same,IC50,"[7]; Homo sapiens, RWPE-1",1.47 ± 0.1 mM
same,IC50,[8]; [17],1.48 ± 0.1 mM
O=C(O)c1ccccn1 [Picolinic acid],IC50,"[1]; Homo sapiens, LNCaP",5.75 mM
same,IC50,[2]; [13],4.95 ± 0.19 mM
same,IC50,"[7]; Homo sapiens, RWPE-1",1.48 ± 0.06 mM
"O=C(O)c1cccnc1C(=O)O [QA, quinolinic acid]",IC50,"[1]; Homo sapiens, LNCaP",6.83 ± 0.42 mM
same,IC50,[2]; [13],6 ± 1.32 mM
same,IC50,[10]; PC-3 and LNCaP,> 5 mM
same,IC50,[6]; [19],> 3 mM
same,IC50,"[7]; Homo sapiens, RWPE-1",3.2 ± 0.16 mM
N[C@@H](Cc1c[nH]c2ccccc12)C(=O)O [Tryptophan],IC50,"[1]; Homo sapiens, LNCaP",6.51 ± 0.29 mM
same,IC50,[2]; [13],1.89 ± 0.13 mM
same,IC50,[10]; LNCaP,1.9 to 6.5 mM
same,IC50,[3]; [14],1.5 ± 0.15 mM
same,IC50,[5]; [15],4.54 ± 0.19 mM
same,IC50,"[7]; Homo sapiens, RWPE-1",0.76 ± 0.03 mM
same,IC50,[12],1.5 to 4.5 mM
same,IC50,[8]; [17],1.54 ± 0.04 mM
"NCCc1ccc(O)cc1 [Tyramine, reference compound]",IC50,"[1]; Homo sapiens, LNCaP",1.71 ± 0.12 mM
same,IC50,[2]; [13],1.53 ± 0.04 mM
same,IC50,[3]; [14],3.18 ± 0.24 mM
same,IC50,[5]; [15],0.77 ± 0.04 mM
same,IC50,"[7]; Homo sapiens, RWPE-1",2.99 ± 0.08 mM
same,IC50,[8]; [17],1.53 ± 0.05 mM
"NCCc1ccccc1 [β-phenylethylamine, reference compound]",IC50,[1],0.69 ± 0.06 mM
same,IC50,[2]; [18],0.44 ± 0.01 mM
same,IC50,[3]; [18],0.72 ± 0.06 mM
same,IC50,[5]; [18],1.47 ± 0.07 mM
same,IC50,[7],2.51 ± 0.19 mM
same,IC50,[8]; [18],1.01 ± 0.03 mM
